Laboratory results taken from patent US6552066B1, “Protein tyrosine kinase inhibitors for treating osteoarthritis” (priority 1995, dated 2003).
Blank lines part the entries; values can stand above or below the compound they belong to.

Experiments:
[1] = test system: IL-1 induced release of 35S-labelled proteoglycans from chondrocytes; assay: Chondrocyte cell culture matrix breakdown assay (IL-1 induced 35S release); assay type: cell-based, calf (bovine); conditions: for inhibitory effect on IL-1 induced release of 35S-labelled proteoglycans: first experiment; for percent inhibition of IL-1 induced 35S release: repeated assay
Procedure: A cell culture assay was used to measure the ability of the test compounds to slow the degradation of the extracellular matrix by a metalloproteinase. This assay measured the amount ^35S released from chondrocytes grown in a media with ^35S labeled sodium sulfate. The cell culture assay was carried out as follows:
Two or three 1 to 3 week old calf joints were obtained from an abattoir. The proximal end of the shank was about 4-5′ long to facilitate immobilization in the holder. The joint was kept cool and transported on ice. The exterior of the intact joints was washed well with a suitable anti-microbial soap, rinsed clean with warm water, rinsed in betadine and then finally rinsed with 70% ethanol. Up to this point all steps were done in a manner to ensure that the joint was kept as clean as possible. All subsequent steps were performed in a sterile field (i.e., in a Edgeguard laminar flow tissue culture hood). The joint was immobilized and the synovial fluid was aspirated with a needle and syringe. The joint was then cut open to expose the articular cartilage using a #21 scalpel. Using locking hemostats, forceps and a #15 scalpel, the cartilage was excised in full thickness pieces. Care was taken not to cut too deep into the subchondral bone to prevent bleeding. The cartilage pieces were placed into a 50 mL centrifuge tube containing 25 mL of Delbecco's phosphate buffered saline (D-PBS) supplemented with 1% antibiotic solution (penicillin, streptomycin and fungizone; GIBCO/BRL). The slices from each joint were then placed into separate 50 mL centrifuge tubes. The D-PBS was decanted and replaced with 25 mL of fresh D-PBS supplemented with antibiotics and subsequently agitated gently.
The cartilage pieces were transferred to a fresh 50 mL centrifuge tube and rinsed once more with 25 mL of D-PBS minus antibiotics. An enzymatic digestion solution containing 1 mg/mL of hyaluronidase in serum-free 1:1 DMEM/Ham's F-12 (DMEM/F12) was prepared. This solution was filter sterilized with 0.22 mm Milex-GV filter and kept on ice until ready to use. The cartilage pieces were digested with approximately 5 mL of hyaluronidase solution per joint for 2×15 minutes at 37° C. in the 50 mL centrifuge tube with gentle agitation at the 15 minute mark. This procedure removed residual hyaluronic acid from the surface of the chips. The enzymatic digestion solution was then aspirated and the cartilage pieces were rinsed with 25 mL of D-PBS.
A second enzymatic digestion solution containing 2.5 mg trypsin and 2 mg collagenase P per mL serum-free DMEM/F12 was prepared. This solution was also filter sterilized with a 0.22 mm Millex-GV filter and kept on ice until ready to use. The cartilage pieces were digested with approximately 5 mL of trypsin: collagenase solution per joint for 2×15 minutes at 37° C. in the 50 mL centrifuge tube with gentle agitation at the 15 minute mark. This procedure removed the synovial fibroblasts and any adherent connective tissue from the surface of the chips. The enzymatic digestion solution was then carefully removed and saved and the cartilage pieces were rinsed with 25 mL of D-PBS.
A third enzymatic solution containing 2 mgs of collagenase P (BMB) per mL serum-free DMEM/F12 was prepared. This solution was filter sterilized with a 0.22 mm Millex-GV filter and kept on ice until ready to use. The pre-digested cartilage pieces were finally digested with approximately 20 mL of enzymatic digestion solution per joint for 5-6 hours at 37° C. in a Bellco stirring digestion flask, at which point the cartilage was fully digested away.
The enzymes in the synovial fibroblast and chondrocyte digest were neutralized by addition of an equal volume of DMEM/F12 supplemented with 5% fetal bovine serum. Fibroblasts were plated in DMEM at a cellular density of 6.6×10^3 cells per cm^2. […]

[2] = test system: IL-1-induced aggrecan degradation; assay: Aggrecan degradation in IL-1-stimulated chondrocytes, 2-B-6 antibody immunoblot; assay type: cell-based, bovine
Procedure: (§1) Primary bovine articular chondrocytes from calf adio-carpal joints were isolated and cultured as above in Example 1, up to and including the addition of the following protein kinase inhibitors: 1) Protein kinase A (PKA) inhibitors; 0.5 μM H88 (Seikagaku Corp.), 0.5 μM H89 (Seikagaku Corp.); 2) Protein kinase C (PKC) inhibitors; 0.5 μM Calphostin C (Calbiochem), 1.0 μM Chelerythrine (Calbiochem); 3) CA^2+/Calmodulin Kinase II inhibitor; 5.0 μM KN93 (Seikagaku Corp.); 4) Protein tyrosine kinase (PTK) inhibitors; 50 μM Genistein (Calbiochem), 10 μM Herbimycin A (Calbiochem). After the 24 hour IL-1α incubation, the media of each sample was measured, and collected on ice in the presence of the protease inhibitors EGTA (5 mM), Pefaloc (1 mM), pepstatin (1 μg/ml), and NEM (5 mM). Media were concentrated approximately 40 fold using a Centriprep-10 ultrafiltration device (Amicon).
(§2) Proteoglycans contained within the media were deglycosylated by incubations with chondroitinase ABC, keratinase, and keratinase II following the procedure of Sandy et al. J Biol Chem (1991) 266:8683-8685 and Sandy et al. J. Clin Invest (1992) 89:1512-1516. Samples of deglycosylated media were subjected to 4-15% gradient SDS-PAGE and transferred to nitrocellulose membranes (2 ml-worth and 6 ml-worth of media were used for 2-B-6 and BC-3 immunoblotting, respectively.) The membranes were blocked with 1% nonfat dry milk and 1% BSA, and then incubated in either the BC-3 or 2-B-6 primary monoclonal antibody for 1 hour. The 2-B-6 antibody detects chondroitin sulfate stubs on chondroitinase-treated proteoglycans (both intact and degradation products. BC-3 antibody detects “ARGSV . . . ,” the new N-terminus (“neoepitope”) resulting from cleavage of aggrecan interglobular domain at Glu^373/ALA^374 by aggrecanase. It is of note to mention that the BC-3 and 2-B-6 antibodies were of low sensitivity. Following 3 washes, membranes were incubated in either alkaline phosphatase-conjugated goat anti-mouse (for the 2-B-6 blot) or biotinylated goat anti-mouse (for the BC-3 blot); followed by alkaline phosphatase-conjugated streptavidin/biotin complex). After washing 3 times, immunoreactive proteins were detected using NBT/BCIP (Sigma) colorimetric substrate.
The 2-B-6 antibody detected intact aggrecan (the uppermost band) and several aggrecan degradation products, along with decorin and biglycan (50K doublet), in the IL-1-treated media samples. […] The bands in the IL-1 sample that are seen at 230K, 200K, 130K and 100K have been previously identified by sequence analysis to result from IL-1-induced “aggrecanase” cleavage.
(§3) A repeat of the Western immunoblotting experiment using 2-B-6 antibodies was performed. Furthermore, additional inhibitors from four enzyme families were examined: 1) Protein tyrosine kinase (PTK) inhibitors; 1 μM Tryphostin AG 1296 (Calbiochem), 50 μM Tyrphostin A25 (AG 82) (Calbiochem), 50 μM Tyrphostin AG 126 (Calbiochem), 50 μM Tyrphostin B56 (AG 556) (Calbiochem), 20 μM DAPH (Calbiochem); 2) Guanylate cyclase inhibitor; 10 μM LY-83583 (Calbiochem); 3) Casein kinase I inhibitor; 20 μM CKI-7 (Seikagaku Corp.); and 4) Protein kinase G (PKG) and PKA inhibitor; 5.0 μM H89.

prostromelysin protein = assay: Western immunoblot of IL-1-induced prostromelysin protein in primary bovine chondrocytes; assay type: cell-based; conditions: for effect on IL-1-induced prostromelysin levels: first experiment; for effect on IL-1α-induced prostromelysin protein levels: repeat experiment
Procedure: Isolation and culturing of primary bovine articular chondrocytes, as well as addition of inhibitors were performed as indicated above in Example 4. The following protein kinase inhibitors were tested: 1) Protein kinase A (PKA) inhibitors; 0.5 μM H88 (Seikagaku Corp.), 0.5 μM H89 (Seikagaku Corp.), 2) Protein kinase C (PKC) inhibitors; 0.5 μM Calphostin C (Calbiochem), 1.0 μM Chelerythrine (Calbiochem); 3) CA^2+/Calmodulin Kinase II inhibitor; 5.0 μM KN93 (Seikagaku Corp.); 4) Protein tyrosine kinase (PTK) inhibitors; 50 μM Genistein (Calbiochem), 10 μM Herbimycin A (Calbiochem).
After the 24 hour IL-1α incubation, the media of each sample was measured and collected on ice in the presence of the protease inhibitors EGTA (5 mM), Pefabloc (1 mM), pepstatin (1 μg/ml), and NEM (5 mM). Media were concentrated approximately 40 fold using a Centriprep-10 ultrafiltration device (Amicon). Concentrated samples were normalized to equivalent starting concentrations (cell number/culture volume), were reduced in the presence of SDS Laemmli sample buffer and electrophoresed in a precast 12% polyacrylamide gel (BioRad). Protein samples were then electroblotted to nitrocellulose and immunodetected using a primary antibody that recognizes both prostromelysin and stromelysin. Immunoreactive bands were visualized with the ABC detection (Pierce) and an NBT/BCIP color reagent (Sigma).
as §3, with “antistromelysin” for “2-B-6”, “inhibitors:” for “inhibitors;”, “Tyrphostin” for “Tryphostin”, “126” for “126 (Calbiochem), 50 μM Tyrphostin B56 (AG 556) (Calbiochem), 20 μM DAPH”

[3] = test system: aggrecanase cleavage of aggrecan (230K fragment); assay: Aggrecanase neoepitope in IL-1-stimulated chondrocytes, BC-3 antibody immunoblot; assay type: cell-based, bovine
Procedure: as §1, §2

[4] = test system: primary bovine articular chondrocytes; assay: In vitro MTT cytotoxicity assay; assay type: cell-based; conditions: 1 μM; 20 hours incubation + 4 hours MTT
Source text: The evaluation of cytotoxicity of compounds by in vitro methods allows one to establish criteria which allow rank ordering among compounds. These methods assess cell permeability, release of cytosolic enzymes, and oxidative potential of cells. The use of tetrazolium dyes to assess cytotoxicity has been established in the area of oncology, where such assays were developed to assess the cytotoxic potential of various chemotherapeutic agents. We have adapted the use of the MTT (3-(4,5-dimethylthiazol-2-yl)-2,5-diphenyl tetrazolium bromide) in an assay using primary bovine articular chondrocytes. The procedure for this assay is given below.
Chondrocytes are isolated from bovine calf radio-carpal joints as described in Example 1. Cells are plated in two 96-well plates at 4×10^4 cells per well, in DMEM/F12 media supplemented with 10% fetal bovine serum. The cultures are refed on days 4, 7, 11, 14, 18, 21 and 24. On day 27, the cells are rinsed with PBS, and incubated for 20 hours with 0.2 ml/well of serum-free DMEM/F12 plus 0.1% DMSO, and the test compounds. Genistein (50 μM), Herbimycin (10 μM) and Staurosporine (1 μM) were each used as test compounds. […] The 96-well plate is then read in a microplate reader at 560 nm, with subtraction of absorbance at 750 nm to account for cell debris.

bovine cartilage explant = conditions: cited from earlier work
protein kinase C gamma = protein kinase C gamma (Homo sapiens, UniProt P05129); conditions: at 100 μM; cited from earlier work
protein kinase C alpha = protein kinase C alpha (Homo sapiens, UniProt P17252); conditions: at 100 μM; cited from earlier work
protein kinase C beta = protein kinase C beta (Homo sapiens, UniProt P05771); conditions: at 100 μm; cited from earlier work
Chain of protein kinase C beta (P05771 whole entry): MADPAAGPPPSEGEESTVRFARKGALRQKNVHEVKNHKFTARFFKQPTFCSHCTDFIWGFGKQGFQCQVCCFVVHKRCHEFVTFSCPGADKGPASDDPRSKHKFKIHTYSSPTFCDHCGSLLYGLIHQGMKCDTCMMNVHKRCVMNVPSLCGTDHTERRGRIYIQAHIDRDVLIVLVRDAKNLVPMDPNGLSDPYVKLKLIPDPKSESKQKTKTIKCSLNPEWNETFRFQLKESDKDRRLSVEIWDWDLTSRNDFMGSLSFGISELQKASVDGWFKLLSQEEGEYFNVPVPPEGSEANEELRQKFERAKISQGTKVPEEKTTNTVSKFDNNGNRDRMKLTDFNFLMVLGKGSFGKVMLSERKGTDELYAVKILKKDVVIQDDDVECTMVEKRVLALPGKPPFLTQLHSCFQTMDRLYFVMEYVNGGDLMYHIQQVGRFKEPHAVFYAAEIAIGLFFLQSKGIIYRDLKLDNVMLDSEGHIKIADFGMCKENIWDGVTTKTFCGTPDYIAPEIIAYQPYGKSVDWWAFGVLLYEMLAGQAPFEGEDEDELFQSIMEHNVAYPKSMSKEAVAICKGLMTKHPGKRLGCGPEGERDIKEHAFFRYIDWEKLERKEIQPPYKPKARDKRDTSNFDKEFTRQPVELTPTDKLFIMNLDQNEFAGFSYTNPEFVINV

[5] = test system: Ca^2+-calmodulin dependent protein kinase II; conditions: cited from earlier work

Compound: COc1ccc2c(c[n+](C)c3c4cc5c(cc4ccc23)OCO5)c1OC [Chelerythrine]
inhibitory effect on IL-1 induced release of 35S-labelled proteoglycans ([1]; 1 μM): no effect
band pattern (ratio of intact aggrecan to 230K fragment), 2-B-6 ([2]; 1.0 μM): pattern similar to IL-1 alone

BC-3 immunoreactive band at approximately 230K (aggrecanase-mediated fragment) ([3]; 0.5 μM): detected
Compound: O=S(=O)(NCCNC/C=C/c1ccc(Br)cc1)c1cccc2cnccc12 [H89]
inhibitory effect on IL-1 induced release of 35S-labelled proteoglycans ([1]; 0.5 μM): no effect
percent inhibition of IL-1 induced 35S release ([1]; 0.5 μM): Little or no inhibition
effect on IL-1-induced prostromelysin levels (prostromelysin protein; 0.5 μM): no effect
band pattern (ratio of intact aggrecan to 230K fragment), 2-B-6 ([2]; 0.5 μM): pattern similar to IL-1 alone

BC-3 immunoreactive band at approximately 230K (aggrecanase-mediated fragment) ([3]; 5.0 μM): absence
Compound: COc1ccc(S(=O)(=O)N(CCO)c2ccccc2CN(C)C/C=C/c2ccc(Cl)cc2)cc1 [KN-93]
inhibitory effect on IL-1 induced release of 35S-labelled proteoglycans ([1]; 5 μM): no effect
effect on IL-1-induced prostromelysin levels (prostromelysin protein; 5.0 μM): no effect
band pattern (ratio of intact aggrecan to 230K fragment), 2-B-6 ([2]; 5.0 μM): pattern similar to IL-1 alone

Compound: O=C1C(Nc2ccccc2)=CC(=O)c2ncccc21 [LY-83583]
effect on IL-1α-induced prostromelysin protein levels (prostromelysin protein; 10 μM): no effect

Compound: CN[C@@H]1C[C@H]2O[C@@](C)([C@@H]1OC)n1c3ccccc3c3c4c(c5c6ccccc6n2c5c31)C(=O)NC4 [Staurosporine]
cytotoxicity, reduction of MTT dye [4]: reduction of MTT consistent with cytotoxicity

Compound: COc1cc2ncc(-c3ccccc3)nc2cc1OC [Tyrphostin AG 1296]
percent inhibition of IL-1 induced 35S release ([1]; 1 μM): no inhibition
effect on IL-1α-induced prostromelysin protein levels (prostromelysin protein; 1 μM): no effect
inhibition of IL-1-induced aggrecan degradation, 2-B-6 ([2]; 1 μM, repeat experiment): no inhibitory effect

Compound: NC1=NC(=O)/C(=C2\CCNC(=O)c3[nH]c(Br)cc32)N1 [Z-hymenialdisine]
inhibition of cartilage degradation in the bovine cartilage explant assay (bovine cartilage explant): inhibit cartilage degradation

Compound: NC1=N/C(=C2/CCNC(=O)c3[nH]ccc32)C(=O)N1 [debromohymenialdisine]
inhibition of protein kinase C gamma (protein kinase C gamma): 108%
inhibition of protein kinase C alpha (protein kinase C alpha): 97%
inhibition of protein kinase C beta (protein kinase C beta): 95%
inhibition of Ca2+-calmodulin dependent protein kinase II [5]: 94%

Compound: CKI-7
percent inhibition of IL-1 induced 35S release ([1]; 20 μM): no inhibition
effect on IL-1α-induced prostromelysin protein levels (prostromelysin protein; 20 μM): no effect

Compound: Calphostin C
inhibitory effect on IL-1 induced release of 35S-labelled proteoglycans ([1]; 0.5 μM): no effect
effect on IL-1-induced prostromelysin levels (prostromelysin protein; 0.5 μM): no effect
band pattern (ratio of intact aggrecan to 230K fragment), 2-B-6 ([2]; 0.5 μM): pattern similar to IL-1 alone
BC-3 immunoreactive band at approximately 230K (aggrecanase-mediated fragment) ([3]; 0.5 μM): detected
